Laboratory results from the supplement of paper PMC8837787.

System: Saccharomyces cerevisiae ABC16-Green Monster
Experiment: growth inhibition at single dose (up to 150 µM), below the 70% cut-off for dose-response; higher = more potent
Conditions: 18 h; 30 °C; YPD
In short: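 Drug-sensitive S. cerevisiae ABC16-Green Monster cells were grown overnight in YPD at 30 °C and diluted to log phase (OD600 0.1–0.2). Each library compound was added at one dose of 150 µM to 200 µl culture per well in 96-well plates, in biological duplicates, with untreated cultures alongside. OD600 was read at 0 h and after 18 h at 30 °C. The value is percent growth inhibition; compounds below 70% in both replicates were not taken to dose-response.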

Structure (SMILES) | growth inhibition at single dose
C=CCn1c(C)cc(C(=O)CSc2nc3ccccc3s2)c1C | < 70%
O=C(Nc1nc2c(s1)CCC2)c1cnn(-c2ccccc2)c1C1CC1 | < 70%
CCC(C)NCC(O)(c1ccc(Cl)cc1)c1ccc(Cl)cc1 (stereo not drawn) | < 70%
CC(C)Cn1c(N)c(C(=O)CSc2nnc(COc3ccccc3Cl)o2)c(=O)n(C)c1=O | < 70%
COc1ccc2nc(C)cc(OCC(=O)Nc3ccccc3OC)c2c1 | < 70%
Cc1ccc2c(C)nc(Nc3nc(C)cc(-c4ccccc4)n3)nc2c1 | < 70%
CCCCNCC(O)(c1ccc(Cl)cc1)c1ccc(Cl)cc1 | < 70%
Cc1ccc(S(=O)(=O)Nc2ccc(CN3CCN(C(=O)c4cccc(C#N)c4)CC3)cc2)cc1 | < 70%
Cc1c(C)n(CCCO)c2ncn3nc(-c4ccccc4O)nc3c12 | < 70%
Cn1/c(=N/C(=O)c2ccc(=O)[nH]c2)sc2ccccc21 | < 70%
CC1(COc2ccc(N3CCC(Oc4ccc(OC(F)(F)F)cc4)CC3)cc2)Cn2cc([N+](=O)[O-])nc2O1 (stereo not drawn) | < 70%
Cc1ccc(Nc2nc(N)c3ccccc3n2)cc1Cl | < 70%
CS(=O)(=O)c1ccc(C(=O)N(CC2CCCO2)c2nc3ccccc3s2)cc1[N+](=O)[O-] (stereo not drawn) | < 70%
Cc1ccc(C(=O)c2oc3ccc4c(C)cc(=O)oc4c3c2C)cc1 | < 70%
CCOc1cc2c(cc1OCC)C(c1cc(Cl)c(O)c(OCC)c1)NCC2 (stereo not drawn) | < 70%
O=C(NNc1cc(N2CCCC2)nc(N2CCCC2)n1)c1ccccc1 | < 70%
COc1cccc(-c2csc(-c3nnc4n3-c3ccccc3SC4)n2)c1 | < 70%
COc1ccc(C)cc1N1CC(C(=O)Nc2nc3ccccc3[nH]2)CC1=O (stereo not drawn) | < 70%
COc1ccc(CCNC(=O)c2cc(S(=O)(=O)N3CC(C)CC(C)C3)ccc2Sc2ccc(F)cc2)cc1OC (stereo not drawn) | < 70%
O=C(O)C1Cc2c([nH]c3ccccc23)C(c2ccc(Cl)cc2Cl)N1 (stereo not drawn) | < 70%
CCc1nc2ccc(C(=O)NCc3ccc4c(c3)OCO4)cn2c1N(C)Cc1cccs1 | < 70%
CCc1cc(=O)n(C)c(SC(C)C(=O)Nc2ccc(F)cc2)n1 (stereo not drawn) | < 70%
Cc1ccccc1NC(=O)c1cc2ccccc2c(CN2CCC3(CC2)OCCO3)c1O | < 70%

Structure (SMILES) | growth inhibition at single dose
Cc1ccc(Nc2nccc(C(F)(F)F)n2)cc1S(=O)(=O)N(C)C | < 70%
Cc1ncc(-c2ccnc(Nc3ccc(S(C)(=O)=O)cc3)n2)n1C(C)C | < 70%
CCCCCC(=O)N1c2ccccc2N=C2CC(c3ccc(OC)c(OC)c3)CC(O)=C2C1c1ccc(C(F)(F)F)cc1 (stereo not drawn) | < 70%
CNC(=O)C1Cc2ccccc2N1C(=O)Cc1ccc(F)cc1 (stereo not drawn) | < 70%
CC(Oc1ccc(NC(=O)c2cccs2)cc1)C(=O)c1ccc(Cl)cc1 (stereo not drawn) | < 70%
COCC(C)n1c(C)cc(C(=O)CSc2ccc(NC(C)=O)cc2)c1C (stereo not drawn) | < 70%
O=C(c1cnn(C(=O)c2nn(-c3ccc(Cl)cc3)cc2O)c1)c1ccccc1O | < 70%
O=C(Nc1ccccc1C(=O)Nc1nnc(C(F)(F)F)s1)c1ccccc1 | < 70%
CCOc1cc2c(cc1OCC)C(c1cc(OC)c(O)cc1Cl)NCC2 (stereo not drawn) | < 70%
CSc1nc2ccc(NC(=O)c3cn4ccccc4n3)cc2s1 | < 70%
Cc1cc(C)n(-c2nc(-c3ccccc3)cc(N3CCOCC3)n2)n1 | < 70%
CCN(CC(=O)Nc1ccccc1-c1ccccc1)Cc1nc(=O)c2ccccc2[nH]1 | < 70%
O=C(NCc1ccco1)C1CCN(S(=O)(=O)c2ccc(Br)cc2)CC1 | < 70%
CCOC(=O)c1cn(CC)c2cc(N(C)CCc3ccc(OC)c(OC)c3)c(F)cc2c1=O | < 70%
Cc1cc(C)cc(Nc2cc(C)nc3nc(C(F)(F)F)nn23)c1 | < 70%
COc1ccc(CCn2c(=N)c(C(=O)NCc3cccnc3)cc3c(=O)n4cccc(C)c4nc32)cc1 | < 70%
Cc1ccc2oc(-c3cc(NC(=O)Cc4ccccc4)ccc3Cl)nc2c1 | < 70%
CCOC(=O)CC(=O)CSc1nnc(-c2ccccc2Cl)n1-c1ccccc1F | < 70%
COc1cc(C(=O)c2c(-c3ccccc3)cc3ccccn23)cc(OC)c1OC | < 70%
Cc1ccc2[nH]c3c(c2c1)CCCC3NCCCN(C)C (stereo not drawn) | < 70%
COc1cc(CNC(=O)Nc2nc3ccccc3s2)cc(OC)c1OC | < 70%
Cc1cc(-c2nc(=O)c3ccccc3[nH]2)c(C)n1CC(C)C | < 70%
OCCNCc1cc(Br)ccc1OCc1ccc(F)cc1 | < 70%

Structure (SMILES) | growth inhibition at single dose
CCN(CC)S(=O)(=O)c1ccc(C(C)NC(=O)c2nn(CC)c(=O)c3ccccc23)cc1 (stereo not drawn) | < 70%
Cc1cc(=O)n2nc(-c3ccc(C(C)(C)C)cc3)cc2[nH]1 | < 70%
COc1ccc(C=C2SC(Nc3ccccc3)=NC2=O)cc1 | < 70%
O=C(Cn1ccnc1[N+](=O)[O-])NCc1ccccc1 | < 70%
CC1CC2=C(CC1CNCCCN(C)C)C(C)(C)CCC2 (stereo not drawn) | < 70%
Cc1cccn2c(=O)cc(CN3C(=O)NC(C)(c4ccc(F)cc4)C3=O)nc12 (stereo not drawn) | < 70%
O=C(c1ccccc1F)N(Cc1ccc(Cl)cc1)c1ccccn1 | < 70%
O=c1nc(CCc2ccc3c(c2)OCCO3)[nH]c2ccccc12 | < 70%
CN(C)c1ccc(N=Cc2ccc(N3CCOCC3)cc2)cc1 | < 70%
CC(=O)NC[C@H]1CN(c2ccc(N3CCSCC3)c(F)c2)C(=O)O1 | < 70%
CCNC(=O)C(C)NC(=O)c1cc(-c2ccccc2)nc2c1cnn2Cc1ccccc1Cl (stereo not drawn) | < 70%
CC(C)(C)C1CCC(CC2=C(O)C(=O)c3ccccc3C2=O)CC1 (stereo not drawn) | < 70%
NCCCC(N)(C(=O)O)C(F)F (stereo not drawn) | < 70%
Cc1sc(NC(=O)c2ccccc2)c(C(c2cccs2)N2CCN(c3ccccc3)CC2)c1C (stereo not drawn) | < 70%
C=C(C)COc1ccc(-c2onc(C)c2-c2ccc(OC)c(OC)c2)c(O)c1 | < 70%
COc1cc2ncnc(NC3CCN(Cc4ccccc4)CC3)c2cc1OC | < 70%
CCOC(=O)N1CCC(N/C=C(\C#N)S(=O)(=O)c2ccc(Cl)cc2)CC1 | < 70%
COc1ccc(-c2csc(NC(=O)CN3CCN(c4ncnc5c4cnn5C)CC3)n2)cc1 | < 70%
CCCn1c(CNc2ccccc2O)nc2ccccc21 | < 70%
CCOC(=O)c1cnc2ccc(OC)cc2c1NCc1ccccc1 | < 70%
Oc1ccccc1CN1CCC2(CCCN(Cc3ccccc3F)C2)C1 (stereo not drawn) | < 70%
Cc1ccccc1C(=O)OCC(=O)c1cc(C)n(Cc2ccco2)c1C | < 70%
